The test system of assay [1] is B6 mouse RGCs. Description: Neurite outgrowth assay of RGCs in co-culture with transfected hNPPFV cells. It counts as cell-based. As to conditions: added to hNPPFV^igf-1-tdTomato co-culture; H-1356 40 μg/ml, NBI-31772 10 μM, IGF-1R antibody 1:250; words. The procedure:
(§1) P0 B6 mice were euthanized with CO2 and the retinas were dissected out from the eyecups in cold Hank's buffer (Life Technologies) containing 1× Penicillin-Streptomycin-Glutamine (Life Technologies). Retinas were digested in 20 U/ml papain solution containing 100 U/ml DNaseI at 37° C. for 5-15 min; the reaction was stopped with 5 mg/ml ovomucoid protease inhibitor containing 5 mg/ml albumin. Retinas were gently triturated to obtain a single cell suspension, and cells were washed once and re-suspended in 800 μl washing buffer (0.5% BSA, 2 mM EDTA in 1×PBS). RGCs were isolated using Thy1.2 (CD90.2) microbeads and MACS® magnetic separation system (Miltenyi Biotech) following the manufacturer's instructions. […]
(§2) Co-culture inserts and culture media were removed after 3 days; RGCs were washed with 1×PBS and stained with CalceinAM and EthD-1 (LIVE/DEAD® Viability/Cytotoxicity kit, Life Technologies) for 40 min at room temperature. Images of 4-6 view fields were randomly selected throughout each well under an Olympus inverted fluorescence microscope. Live and dead cells were counted using ImageJ 1.46 (National Institutes of Health, Bethesda, Md.) and survival rates were calculated as live cells/live+dead cells×100%. […] Images were acquired with an Olympus inverted fluorescence microscope. Neurite lengths were measured using ImageJ.

Assay [2] concerns B6 mouse RGCs. The assay is described as follows: RGC survival assay (LIVE/DEAD) in co-culture with transfected hNPPFV cells. It counts as cell-based. The settings on record: added to hNPPFV^igf-1-tdTomato co-culture; H-1356 40 μg/ml, NBI-31772 10 μM, IGF-1R antibody 1:250; words. The procedure:
as §1, §2

In assay [3] the test system is retina of adult C57BL/6 mice. The assay is described as follows: Inner retinal (intravitreal) transplantation into adult C57BL/6 mice. It counts as in vivo, mouse. The settings on record: intraperitoneal RA 2 mg/kg·day, 3 weeks; result in words. From the text:
For studying their potential for inner retinal transplantation, NPPFV cells or hRPCs were intravitreally injected to 20 and 10 C57BL/6 mice, respectively. Animals were maintained in standard animal facility. To trace the transplanted cells, NPPFV cells and hRPCs were infected with an AAV2 or retrovirus vector harboring EGFP (HGTI, Boston, Mass.) following the instructions of each transfection kit, respectively. Mice (4-6 weeks of age) were deeply anesthetized with an intraperitoneal injection of ketamine (120 mg/kg) and xylazine (20 mg/kg) and pupils were dilated with 0.5% topical tropicamide. Dissociated GFP-positive cells (1×10^5 cells/2 μl) were suspended in HBSS […] of the eye through a glass micropipette connected to a 10 μl Hamilton syringe via polyethylene tubing. Sham-injected mice received HBSS without cells. All experimental animals received injection in one eye and the other eye was used as an untreated control. […] Anti-GFP antibody (1:100, ABCAM, USA) was used to enhance the fluorescence of prelabled-GFP, while anti-β-III-tubulin (1:500, Sigma, USA), anti-GFAP (1:300, Sigma, USA) and anti-synaptophysin (1:100, DAKO, USA) antibodies helped to assess the differentiation of the transplanted cells. […] Every 10th serial section was counted, measuring […] in thickness as to avoid redundancy of cell counts.

Another assay has as its system NPPFV cells. The assay is described as follows: Ca2+ imaging (Fura-2) of NPPFV cells after stimulation with neurotransmitters. It counts as cell-based, human. The settings on record: for percentage of responding NPPFV cells: neurotransmitter 0.1 mM, mean±SEM; for elicited [Ca2+]i of responding NPPFV cells: undifferentiated and differentiated NPPFV cells, result in words. The procedure:
Cells were incubated at 37° C. for 30 min in X-vivo medium (containing 3% FBS, 5 μM Fura-2 tetra-acetoxymethyl ester, 8 μM pluronic acid F127 and 250 μM sulfinpyrazone). Cells were washed in modified Mg^2+-free Hank's balanced salt solution (HBSS, 2.6 mM CaCl2, 15 mM HEPES [pH 7.4] and 250 μM sulfinpyrazone). Five types of neurotransmitters, γ-aminobutyric acid (GABA), glutamate (Glu), glycine (Gly), dopamine (Dopa) and acetylcholine (Ach) were dissolved in modified HBSS at a concentration of 0.1 mM. The largest dynamic range for Ca^2+-dependent fluorescence signals is obtained by excitation at 340 nm and 380 nm, and detecting their ratio of emission fluorescence intensities at around 510 nm. From this ratio, the concentration of intracellular Ca^2+ ([Ca^2+]i) can be estimated, using dissociation constants that are derived from calibration curves. By using the ratio of fluorescence intensities produced by excitation at two wave lengths, factors such as uneven dye distribution and photo bleaching are minimized ([…] Ratio Imaging System, Cincinnati, Ohio). The change of [Ca^2+]i was calculated from the difference between the peak Ca^2+ concentration evoked by each agonist and the control value of HBSS (before the addition of agonist). At least 80 cells were selected for analyzing the change of [Ca^2+]i evoked by each agonist, averaged over three repetitions.

Assay [4] concerns the target IGF-1 receptor on B6 mouse retinal ganglion cells (mouse) (UniProt Q60751). The assay is described as follows: cell-based or functional assay.
Sequence of UniProt Q60751 (Q60751 31-1373): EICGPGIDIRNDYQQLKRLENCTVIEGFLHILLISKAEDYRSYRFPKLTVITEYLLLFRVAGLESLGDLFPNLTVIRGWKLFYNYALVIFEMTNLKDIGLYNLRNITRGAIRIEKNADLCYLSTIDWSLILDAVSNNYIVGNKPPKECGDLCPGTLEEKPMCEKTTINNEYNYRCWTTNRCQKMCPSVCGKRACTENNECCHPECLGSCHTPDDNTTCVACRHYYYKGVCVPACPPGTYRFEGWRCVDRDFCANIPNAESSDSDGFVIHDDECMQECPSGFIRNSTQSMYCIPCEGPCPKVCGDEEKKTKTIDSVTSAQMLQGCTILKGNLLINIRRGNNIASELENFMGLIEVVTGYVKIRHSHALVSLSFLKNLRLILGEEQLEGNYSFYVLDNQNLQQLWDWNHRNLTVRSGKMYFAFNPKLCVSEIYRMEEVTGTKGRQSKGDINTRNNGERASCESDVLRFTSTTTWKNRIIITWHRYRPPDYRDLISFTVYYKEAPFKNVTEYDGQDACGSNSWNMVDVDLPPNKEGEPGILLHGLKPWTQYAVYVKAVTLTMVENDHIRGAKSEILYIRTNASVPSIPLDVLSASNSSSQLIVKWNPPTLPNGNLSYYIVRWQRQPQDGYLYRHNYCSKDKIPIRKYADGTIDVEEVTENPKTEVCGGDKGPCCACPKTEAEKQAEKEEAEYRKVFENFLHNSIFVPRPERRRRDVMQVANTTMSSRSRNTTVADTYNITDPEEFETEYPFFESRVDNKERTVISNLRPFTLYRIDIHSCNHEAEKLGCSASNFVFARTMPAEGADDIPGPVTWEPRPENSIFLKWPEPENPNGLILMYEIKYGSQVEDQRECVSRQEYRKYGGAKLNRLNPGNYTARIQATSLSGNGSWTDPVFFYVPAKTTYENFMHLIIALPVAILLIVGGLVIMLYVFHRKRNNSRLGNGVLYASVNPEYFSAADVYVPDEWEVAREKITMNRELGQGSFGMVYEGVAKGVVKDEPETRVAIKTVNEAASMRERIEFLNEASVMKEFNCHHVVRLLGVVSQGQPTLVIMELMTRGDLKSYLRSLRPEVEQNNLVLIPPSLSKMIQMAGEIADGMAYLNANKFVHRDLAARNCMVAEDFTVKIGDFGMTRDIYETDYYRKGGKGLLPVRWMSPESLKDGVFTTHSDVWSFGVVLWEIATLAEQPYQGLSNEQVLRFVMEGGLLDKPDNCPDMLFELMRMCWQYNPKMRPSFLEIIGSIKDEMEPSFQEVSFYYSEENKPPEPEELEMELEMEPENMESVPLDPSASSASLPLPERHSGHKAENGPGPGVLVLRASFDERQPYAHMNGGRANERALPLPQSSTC

For `O=C(O)c1cc2cc(O)c(O)cc2c(C(=O)c2ccc(O)c(O)c2)n1` [NBI-31772], the “effect on IGF-1-tdTomato-mediated neurite outgrowth” value in the assay on B6 mouse RGCs [1] is given as “completely eliminated the effects”. Also, the “effect on IGF-1-tdTomato-mediated RGC survival” value with B6 mouse RGCs [2] is listed as “completely eliminated the effects”.

Take `CC1=C(/C=C/C(C)=C/C=C/C(C)=C/C(=O)O)C(C)(C)CCC1` [RA, all-trans-retinoic acid]: the “differentiation of engrafted NPPFV cells into retinal ganglion-like neurons” value in assay [3] is listed as “significantly increases the differentiation of engrafts into retinal ganglion-like mature neurons”.

On to `CC(=O)OCC[N+](C)(C)C` [Ach, acetylcholine], for which the “percentage of responding NPPFV cells” value came out at 8.23±5.41% in the assay with NPPFV cells (differentiated NPPFV cells) and 10.96±8.12% with NPPFV cells (undifferentiated NPPFV cells).

Take `N[C@@H](CCC(=O)O)C(=O)O` [Glu, glutamate]: the “percentage of responding NPPFV cells” value in the assay with NPPFV cells (differentiated NPPFV cells) came out at 87.88±4.97%; in the assay on NPPFV cells (undifferentiated NPPFV cells), 48.98±11.67%. Besides, the “elicited [Ca2+]i of responding NPPFV cells” value (shortened to “elicited [Ca2+]i”) in the assay on NPPFV cells was “significant increase”.

For `NCCCC(=O)O` [GABA, γ-aminobutyric acid], the “percentage of responding NPPFV cells” value in the assay with NPPFV cells (differentiated NPPFV cells) is listed as 12.99±4.86%; with NPPFV cells (undifferentiated NPPFV cells), 14.94±11.73%. Besides, the “elicited [Ca2+]i” value with NPPFV cells is reported as “quite low”.

In assay [4], “IGF-1-tdTomato fusion protein (from UniProt P05017 49-118) (ligand)” had an average neurite length of RGCs co-cultured with hNPPFV^igf-1-tdTomato cells of 93 µm, a neurites per RGC co-cultured with hNPPFV^igf-1-tdTomato cells (neurites/cell) of 2 and a survival rate of RGCs co-cultured with hNPPFV^igf-1-tdTomato cells of 22%.

On to `NCCc1ccc(O)c(O)c1` [Dopa, dopamine], for which the “percentage of responding NPPFV cells” value with NPPFV cells (differentiated NPPFV cells) was 7.89±9.18%; in the assay on NPPFV cells (undifferentiated NPPFV cells), 6.41±7.14%. For the same compound, the “elicited [Ca2+]i” value in the assay on NPPFV cells is reported as “quite low”.

Take `NCC(=O)O` [Gly, glycine]: the “percentage of responding NPPFV cells” value was found to be 21.05±9.72% in the assay with NPPFV cells (differentiated NPPFV cells) and 16.67±10.62% in the assay on NPPFV cells (undifferentiated NPPFV cells). In the assay on NPPFV cells, the “elicited [Ca2+]i” value was “quite low”.
